Source: the supplement of paper PMC5908809

Experiments:
[1] = test system: normal NK cells expanded with K562-aAPC; test: percent inhibition of viability; higher = more inhibition; details: 72 h, IL-2 2.5 ng/mL
Protocol: (§1)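 Drug sensitivity and resistance testing on K562-aAPC-expanded normal NK cells: 5 concentrations (10-fold steps over a 10,000-fold range), 72 h at 37 °C, viability by CellTiter-Glo normalised to DMSO and benzethonium chloride controls; DSS from the fitted curve.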

[2] = test system: normal NK cells expanded with K562-aAPC; test: drug sensitivity score (DSS) (DSS units); higher = more sensitive; extreme values may be limits of the assay; details: 72 h; IL-2 2.5 ng/mL
Protocol: as §1

[3] = test system: DERL-7 (IL-2 2.5 ng/mL); test: as above; details: 72 h
[4] = test system: normal primary NK cells, pool 1 (3 donors) (IL-2 2.5 ng/mL); test: as above; details: 72 h
[5] = test system: NKL (IL-2 2.5 ng/mL); test: as above; details: 72 h
[6] = test system: KAI3 (IL-2 2.5 ng/mL); test: as above; details: 72 h
[7] = test system: IMC-1 (IL-2 20 ng/mL); test: as above; details: 72 h
[8] = test system: normal primary NK cells, pool 1 (3 donors), resting (IL-2 0 ng/mL); test: as above; details: 72 h
[9] = test system: SNK-6 (IL-2 2.5 ng/mL); test: as above; details: 72 h
[10] = test system: normal primary NK cells, pool 2 (3 donors) (IL-2 2.5 ng/mL); test: as above; details: 72 h
[11] = test system: normal primary NK cells, pool 3 (3 donors) (IL-2 2.5 ng/mL); test: as above; details: 72 h
[12] = test system: YT (IL-2 2.5 ng/mL); test: as above; details: 72 h
[13] = test system: KHYG-1 (IL-2 2.5 ng/mL); test: as above; details: 72 h
[14] = test system: NK-YS (IL-2 2.5 ng/mL); test: as above; details: 72 h
[15] = test system: NK-92 (IL-2 2.5 ng/mL); test: as above; details: 72 h
[16] = test system: DERL-7 (IL-2 2.5 ng/mL); test: percent inhibition of viability; higher = more inhibition; details: 72 h
[17] = test system: normal primary NK cells, pool 1 (3 donors) (IL-2 2.5 ng/mL); test: as above; details: 72 h
[18] = test system: NKL (IL-2 2.5 ng/mL); test: as above; details: 72 h
[19] = test system: KAI3 (IL-2 2.5 ng/mL); test: as above; details: 72 h
[20] = test system: IMC-1 (IL-2 20 ng/mL); test: as above; details: 72 h
[21] = test system: normal primary NK cells, pool 1 (3 donors), resting (IL-2 0 ng/mL); test: as above; details: 72 h
[22] = test system: SNK-6 (IL-2 2.5 ng/mL); test: as above; details: 72 h
[23] = test system: normal primary NK cells, pool 2 (3 donors) (IL-2 2.5 ng/mL); test: as above; details: 72 h
[24] = test system: normal primary NK cells, pool 3 (3 donors) (IL-2 2.5 ng/mL); test: as above; details: 72 h
[25] = test system: YT (IL-2 2.5 ng/mL); test: as above; details: 72 h
[26] = test system: KHYG-1 (IL-2 2.5 ng/mL); test: as above; details: 72 h
[27] = test system: NK-YS (IL-2 2.5 ng/mL); test: as above; details: 72 h
[28] = test system: NK-92 (IL-2 2.5 ng/mL); test: as above; details: 72 h

FC(F)(F)c1ccc(/C=C/c2nc(COc3ccc(CCCCn4ccnn4)cc3)co2)cc1 [Mubritinib] (max concentration tested 1000 nM)
percent inhibition of viability [%]
Details	0.1 nM	1 nM	10 nM	100 nM	1000 nM
[1]	-6.01	-7.06	-7.66	9.52	14.1
[16]	1.75	0.44	5.74	24.8	27
[17]	-7.65	0.13	21.1	48.2	50.2
[18]	-16.4	-8.04	7.63	38.2	57.6
[19]	3.33	-9.68	-0.43	26.5	45.4
[20]	-1.73	-4.86	37.2	86.6	31.2
[21]	10	1.44	28.5	61	64.8
[22]	-13.7	-12.2	4.91	4.95	7.75
[23]	-5.29	-7.28	16.6	27.6	34.2
[24]	-9.77	-2.9	15.1	21.5	34
[25]	-2.71	-3.53	24	44.2	39.6
[26]	-2.15	-7.85	17	42.5	66.5
[27]	-3.84	-4.99	8.6	64	81.2
[28]	-8.31	-12.6	7.62	30.8	42.3

Details	drug sensitivity score
[2]	0.75
[3]	4.52
[4]	11.5
[5]	8.04
[6]	5.59
[7]	20.6
[8]	14.7
[9]	0
[10]	7.39
[11]	4.94
[12]	11
[13]	9.82
[14]	13
[15]	6.23

O=C(Nc1cccc(Cl)c1)Nc1ncc(CCNc2ncnc3ccsc23)s1 [SNS-314] (max concentration tested 1000 nM)
percent inhibition of viability [%]
Details	0.1 nM	1 nM	10 nM	100 nM	1000 nM
[1]	-6.43	-10	4.3	43.3	42.2
[16]	-2.96	-1.43	3.21	69.3	58.4
[17]	1.31	16.9	9.79	4.5	10.9
[18]	-9.51	-8.35	6.03	23.5	42.8
[19]	-2.71	-1.61	20.4	30.6	47.3
[20]	-9.62	-5.56	14.2	10.2	70.4
[21]	3.09	19.6	8.47	17.5	20.9
[22]	-12.7	-23.7	33.2	59.5	70
[23]	-8.39	1.8	4.68	5.41	5.48
[24]	-5.85	0.22	7.29	3.37	8.78
[25]	-4.76	-1.46	7.82	19	37.3
[26]	-7.32	-4.71	35.4	53.6	68
[27]	-8.15	-3.63	-0.24	70.4	75.2
[28]	-4.05	-1.72	20.3	45.2	83.4

Details	drug sensitivity score
[2]	8.52
[3]	13.1
[4]	0
[5]	4.85
[6]	7.77
[7]	5.61
[8]	3.41
[9]	17.1
[10]	0
[11]	0
[12]	3.89
[13]	15
[14]	13
[15]	11.2

O=C(O)c1ccc(Nc2ncc3c(n2)-c2ccc(Cl)cc2C(c2c(F)cccc2F)=NC3)cc1 [MLN-8054] (max concentration tested 10000 nM)
percent inhibition of viability [%]
Details	1 nM	10 nM	100 nM	1000 nM	10000 nM
[1]	0.34	1.46	-1.49	39.7	57.7
[16]	-1.42	-2.27	-2.98	42.2	63.5
[17]	-5.64	-11.5	-5.12	-17.1	3.94
[18]	12.4	12.3	30.5	66.5	36.9
[19]	5.5	5.3	20.2	51.7	71.4
[20]	2.52	4.23	18.1	27.9	87.8
[21]	19.2	-7.07	0.26	-14.7	13.3
[22]	-1.52	0.61	53.3	78.6	81.5
[23]	1.69	-1.38	2.04	-0.41	21.9
[24]	5.09	2.04	1	3.1	12.9
[25]	4.9	5.88	21	51.3	62
[26]	4.03	6.1	20	64.1	79
[27]	5.25	3.3	40.5	74	86.5
[28]	7.92	3.31	17.5	33.8	65.2

Details	drug sensitivity score
[2]	7.83
[3]	8.47
[4]	0
[5]	14
[6]	12.2
[7]	7.96
[8]	0.03
[9]	21.2
[10]	0.7
[11]	0.29
[12]	11.9
[13]	14.3
[14]	19
[15]	8.69
